Source: publication PMC12381739, “Druglike Molecular Degraders of the Oncogenic RNA-Binding Protein HuR” (JACS Au, 2025)

How the values were obtained:
[1] = biological target: T1, HuR (Homo sapiens, UniProt Q15717); test: HuR protein expression by western blot in MCF-7 cells; type: cell-based; design: endogenous in cells; host or cells: MCF-7
From the text: Michigan Cancer Foundation-7 (MCF-7) cells were chosen due to their documented overexpression of HuR, which has been linked to cancer pathogenicity in this specific cell line. , Consequently, reducing HuR expression to physiologically normal levels is considered a potential strategy for novel anticancer therapies targeting breast cancers associated with HuR overexpression.
(§1) Total protein was extracted using RIPA cell lysis buffer (BioPrep) containing a protease inhibitor, and protein concentration was measured using the BCA protein assay (Sigma-Aldrich) according to the manufacturer’s protocol. Approximately 30 μg of total protein were resolved on a 12% SDS-acrylamide gel and transferred to a PVDF membrane (Immobilon FL transfer membrane; Merck). The membrane was washed with 1× Tris-buffered saline (TBS) containing 0.1% (v/v) Tween-20 (TBST; Tris-base, pH 7.6, NaCl, and Tween-20) and blocked in 1× TBST containing 5% (w/v) BSA for 2 h at room temperature. The membrane was then incubated overnight at 4 °C with primary antibodies: a 1:1000 dilution of rabbit anti-ELAVL1/HuR (Cell Signaling Technology, #12582), a 1:1000 dilution of mouse anti-Bcl2 (Cell Signaling Technology, #15071), or a 1:10,000 dilution of rabbit anti-Vinculin (Cell Signaling Technology, #13901) in 1× TBST containing 5% (w/v) BSA. Following primary antibody incubation, the membrane was washed with 1× TBST and incubated with a 1:10,000 dilution of the appropriate horseradish-peroxidase-conjugated secondary antibody (antirabbit IgG: Cell Signaling, #7074 or antimouse IgG: Cell Signaling, #7076) at room temperature for 2 h. After washing three times with 1X TBST (10 min per wash), protein bands were visualized using Clear Band ECL Substrate (Gene Bio-Application) on the Azure C300 Imaging System. The fold change in the expression of the target proteins (HuR or Bcl2) was calculated by normalizing the band intensity to the Vinculin band intensity using ImageJ.

[2] = system: MCF-7 cells; test: Caspase-Glo 3/7 apoptosis assay; type: cell-based, human; conditions: MCF-7, 10 nM
From the text: To elucidate the decrease in cell viability observed, we evaluated the potential increase in apoptosis using the […] Caspase-Glo 3/7 assay system. Upon cell lysis, active caspases cleave a luminogenic substrate, releasing aminoluciferin, which is subsequently converted to light by luciferase. The intensity of the signal directly correlates with the levels of apoptosis. […] This destabilization reduces the levels of proteins essential for cancer cell survival, resulting in cumulative cellular stress, diminished proliferation, and enhanced cytotoxicity. […] This enhanced effect is likely due to the catalytic nature of the molecular glue degraders, offering promising potential for cancer treatment.
MCF-7 cells were seeded in 96-well plates to 80% confluency and treated with synthesized compounds at four concentrations (1 nM–1 μM) for 24 and 48 h. Cell apoptosis was analyzed using the Caspase-Glo 3/7 Assay System (Promega, G8090). Each sample was incubated with Caspase-Glo 3/7 solution for 1 h, followed by luminescence measurement. Luminescence was measured […] using the Synergy H1 Hybrid Multi-Mode Microplate Reader (Biotek, Agilent). Cell apoptosis was calculated as the percent increase in luminescence of treated cells compared to untreated controls. All experiments were performed in triplicate.

[3] = system: MCF-7 and MDA-MB-231 cells; test: Cell counting-proliferation assay; type: cell-based, human; conditions: compared to Binders 1 and 2, at 24 and 48 h
Method: MCF-7 and MDA-MB-231 cells were seeded in 96-well plates to 80% confluency and treated with synthesized compounds at eight concentrations (0.1 nM–100 μM) for 24 and 48 h. Cell proliferation was assessed using the Resazurin Assay Kit (Abcam, ab228554), where each sample was incubated with 1× WST-8/CCK8 solution for 1 h. After incubation, fluorescence was measured by absorbance at 460 nm using the Synergy H1 Hybrid Multi-Mode Microplate Reader (Biotek, Agilent). Cell proliferation was calculated as the percent decrease in fluorescence of treated cells compared to untreated controls. All experiments were performed in triplicate.

[4] = biological target: T1, HuR; test: HuR protein expression by western blot in MDA-MB-231 cells; type: cell-based; design: endogenous in cells; conditions: 48 h
Method: as §1, with “After washing three times with 1X TBST (10 min per wash), protein bands were visualized using Clear Band ECL Substrate (Gene Bio-Application) on the Azure C300 Imaging System.” left out

[5] = biological target: T2, HuR RRM1/2 (Homo sapiens, UniProt Q15717); test: Fluorescence polarization (FP) displacement assay, 5′ FAM-labeled RNA probe from HuR; conditions: displacement of 5′-FAM RNA probe UAUUUAUUUA (20 nM) from 500 nM HuR RRM1/2; read-out: Binding affinity towards HuR in FP assay (Kd)
T2 construct: 20 nM of the 5′-FAM RNA probe and 500 nM of HuR RRM1/2
Method: Following the synthesis, our initial aim was to ensure that the new derivatives retained their affinity for HuR’s RNA-binding pocket. Thus, a binding evaluation assay was conducted. As previously reported, the RNA-binding pocket of HuR specifically recognizes the UTR sequences of mRNAs, with […] identified as a common binding motif. To evaluate the binding of each degrader, we conducted a fluorescence-based assay utilizing a 5-carboxyfluorescein (5′ FAM)-labeled reporter. This fluorescence polarization (FP) assay is based on the displacement of the 5′ FAM-labeled mRNA from HuR’s RNA-binding pocket, which provides insight into both the binding affinity of the degrader and its capacity to disrupt the HuR-mRNA interaction, thereby serving as a means of validating target engagement. When the 5′ FAM-RNA probe is bound to HuR, it forms a binary complex, resulting in slower rotational movement and a consequently high FP signal. However, when either molecule displaces the 5′ FAM-labeled RNA, the probe is released into the solution, where it undergoes rapid rotation, leading to a significant reduction in the FP signal (Figure S3). This decrease in FP serves as a quantitative measure of the degrader’s ability to compete with mRNA for HuR binding. […] As mentioned above, we synthesized a series of HuR ligand derivatives featuring indole and benzothiophene cores, along with ester and carboxylic acid functional groups.
As previously reported, the sequence of the fluorescently labeled (5′-FAM) RNA probe is […]. The assays were performed in PBS buffer (20 mM sodium phosphate, 150 mM NaCl, 1 mM dithiothreitol, 0.05% PLURONIC-127, 15% DMSO) at 293 K. Fluorescence was measured using the Synergy H1 Hybrid Multi-Mode Microplate Reader (Biotek, Agilent) with excitation and emission wavelengths set to 485 and 528 nm, respectively. Each well of a 384-well plate contained 20 nM of the 5′-FAM RNA probe and 500 nM of HuR RRM1/2. Compounds were tested at eight concentrations (0.1 nM–100 μM), with compound 10 serving as a positive control and PBS as the negative control. The protein-mRNA mixture was incubated for 1.5 h to allow for binding interactions. After this incubation, the compounds were added, and the mixture was incubated for an additional hour. The FP emission of the resulting HuR-compound complex was then recorded. The percent inhibition of binding was calculated by comparing the FP values of experimental conditions to the PBS control. The FP value corresponding to the HuR-RNA complex in the presence of DMSO was used as the 100% complexation reference, while the FP value of the labeled RNA alone was set as 0% complexation. The dissociation constant (K d) for the compound-HuR binding interaction was determined by fitting the dose–response curve to specific binding models using Prism 10.2.2. All experiments were performed in triplicate.

T1 sequence (Q15717 whole entry): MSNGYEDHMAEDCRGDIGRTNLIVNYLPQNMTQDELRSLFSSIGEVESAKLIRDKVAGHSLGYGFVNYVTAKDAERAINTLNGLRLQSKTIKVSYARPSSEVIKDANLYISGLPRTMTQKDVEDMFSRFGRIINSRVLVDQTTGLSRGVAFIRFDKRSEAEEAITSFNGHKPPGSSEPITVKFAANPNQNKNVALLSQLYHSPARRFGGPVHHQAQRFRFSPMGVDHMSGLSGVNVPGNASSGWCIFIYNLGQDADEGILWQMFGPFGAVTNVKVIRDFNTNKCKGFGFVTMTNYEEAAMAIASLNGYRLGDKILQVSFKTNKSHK
T2 sequence (Q15717 18-186 limits assumed): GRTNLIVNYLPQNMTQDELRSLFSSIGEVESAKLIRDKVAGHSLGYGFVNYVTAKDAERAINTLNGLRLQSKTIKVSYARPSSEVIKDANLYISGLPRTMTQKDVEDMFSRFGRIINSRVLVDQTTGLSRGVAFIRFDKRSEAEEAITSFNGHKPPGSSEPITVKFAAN

O=C1CCC(N2C(=O)c3cccc(NCc4cn(-c5ccc6sc(C(=O)O)cc6c5)nn4)c3C2=O)C(=O)N1 (stereo not shown) [PRO-HuR3]
reduction of HuR expression ([1]; MCF-7, 10 nM, 48 h): 42%
onset of activity (HuR degradation) ([1]; MCF-7, 10 μM): 48 h
time-dependent response of HuR degradation ([1]; MCF-7, 10 μM): showed a time-dependent response
reduction of HuR expression ([1]; MCF-7, 10 μM, 48 h): ~75%
degrader activity at intermediate concentration (hook effect) ([1]; around 0.1 μM, 48 h, MCF-7 and MDA-MB-231): loss of degrader activity
apoptosis (caspase 3/7) [2]: significant increase in apoptosis
cell proliferation [3]: significant decrease in cell proliferation
reduction of HuR expression ([4]; MDA-MB-231, 10 nM): 38%
reduction of HuR expression ([4]; MDA-MB-231, 10 μM): ~75%
Kd [5]: 30 nM
